Where “and” joins values, the source holds several entries; their conditions need not be identical. Equal entries are not always repeated.
Assays:
[1] = tested on: HT1080 spheroids; assay: 3-dimensional growth of HT1080 spheroids (BrdU/7-AAD FACS, morphology); type: cell-based
[2] = in vitro; settings: African green monkey, CC50 (μM)
[3] = tested on: Influenza A; assay: microbe, parasite or virus in culture; type: cell-based; settings: MDCK
[4] = Cytotoxicity (CC50) in MT-2 cells; type: cell-based; settings: human, MT-2, HIV-1 line
[5] = tested on: HSV-1; assay: HSV-1 CPE protection assay in Vero cells; type: cell-based, herpes simplex virus-1; settings: Human alphaherpesvirus 1, HSV-1, DNA
[6] = Genotoxicity studies
Description: (§1) Nonclinical safety testing further supports clinical development of Compound #10.

[7] = tested on: RSV; assay: RSV CPE protection assay in Vero cells; type: cell-based; settings: human respiratory syncytial virus
[8] = Phase 1a single-dose study in healthy volunteers; type: in vivo, human; settings: healthy subjects, single doses through 3 mg/kg (~210 mg), highest single dose tested
Experimental: Initial clinical evaluation of Compound #10 was performed in healthy volunteers.

[9] = in vitro; settings: African green monkey
[10] = Toxicology study in dogs through 28 days; type: in vivo; settings: doses and exposures in excess of therapeutic nonclinical doses
Description: as §1

[11] = tested on: Dengue 2; assay: Dengue 2 CPE protection assay in Vero E6 cells; type: cell-based; settings: Dengue virus, Vero C1008, Dengue 2, (+) RNA
[12] = Cytotoxicity (CC50) in HeLa cells; settings: human
[13] = tested on: Vero; settings: WNV line
[14] = tested on: HIV-1; assay: HIV-1 CPE protection assay in MT-2 cells; type: cell-based; settings: Human immunodeficiency virus 1, MT2; HIV-1, Retro, MT-2, CPE protection
Experimental: (§2) The activity against HIV-1 was tested in MT2 cells and PBMCs in cell culture by preventing virus induced cytopathic effect and measuring viral p24 protein in the culture supernatant.

[15] = Cytotoxicity (CC50) in PBMCs; type: cell-based; settings: human, HIV-1 line
[16] = tested on: Parainfluenza; assay: Parainfluenza CPE protection assay in Vero cells; type: cell-based, parainfluenza virus; settings: (−) RNA
[17] = tested on: HIV-1; assay: HIV-1 p24 ELISA assay in PBMCs; type: cell-based; settings: Human immunodeficiency virus 1, PBMC, HIV-1, Retro
Experimental: as §2

[18] = tested on: HT 1080 cells; assay: Kinetics of S-phase transit by BrdU incorporation into DNA; type: cell-based; settings: 18-hour treatment
Experimental: HT 1080 cells are exposed to BrdU (bromodeoxyuridine, a synthetic nucleoside that is an analogue of thymidine and is incorporated into DNA during the S phase of cell division) (FITC BrdU Flow Kit, BD Pharmingen catalog #552598). Cells are grown and treated as described in Section 9.3.1.3 above with the exception that one hour prior to harvesting by trypsinization, BrdU (final concentration 1 μM) is added to each culture for 1 hour. Cells actively replicating DNA during this brief time incorporate the BrdU into the DNA, which can then be quantified. BrdU content is quantified using the FITC BrdU Flow Kit as instructed by the manufacturer. The process includes fixation (paraformaldehyde) and DNA staining with 7-AAD (7-amino-actinomycin D) followed by incubation with a fluoro-tagged anti-BrdU antibody that specifically recognizes BrdU incorporated into DNA. Dual channel FACS analysis permits assessment of both the DNA content of individual cells and the rate of transit across the S-phase, which is assessed based upon BrdU incorporation over the one hour treatment period.

[19] = tested on: HT1080 cells; assay: Cell cycle analysis by propidium iodide staining and flow cytometry; type: cell-based; settings: for effect on cell cycle distribution / % Cells In S-Phase: normoxic; for effect on cell cycle distribution: #10 0.3-100 nM, 1205 10 nM; for % Cells In S-Phase: HT1080 cells, 100 nM, 18 hours, DMSO control 17.3, >20% considered active
[20] = Phase 1b and Phase 2 studies in patients with neoplasia (safety); type: in vivo, human; settings: 0.3 mg/kg/dose BID to 200 mg/dose TID, at least 4-6 weeks
Experimental: To date, doses of 0.3 mg/kg/dose (˜20 mg/dose) (n=6), 0.6 mg/kg/dose (˜40 mg/dose) (n=9), 1.2 mg/kg/dose (˜80 mg/dose) (n=12) BID have been tested for at least 4 weeks. In addition, 100 mg/dose BID (n=52), 100 mg/dose TID (n=6), 120 mg/dose TID (n=3), 160 mg/dose TID (N=3), and 200 mg/dose TID (n=3) have been tested for at least 6 weeks of continuous treatment.

[21] = in vitro; settings: dog
[22] = Safety pharmacology studies
Description: as §1

[23] = Toxicology study in rats through 28 days; type: in vivo; settings: doses and exposures in excess of therapeutic nonclinical doses
Description: as §1

[24] = tested on: Adenovirus; assay: Adenovirus CPE protection assay in HeLa cells; type: cell-based; settings: unidentified adenovirus, DNA
[25] = tested on: HCV genotype 1b replicon; assay: HCV subgenomic replicon assay, genotype 1b, standard cell culture; type: cell-based, hepatitis C virus
[26] = in vitro; settings: human
[27] = Bioavailability in vivo from aqueous suspension; settings: administered in an aqueous suspension
Experimental: It is anticipated that Compound 1205 can be clinically administered via a solid-dosage form. For all the studies outlined herein, Compound 1205 was lyophilized prior to formulation to minimize batch-to-batch variations in particle-size.
The compound was dissolved in acetonitrile at a concentration of 15 mg/mL. An equal amount of water was added to bring the final concentration to 7.5 mg/mL in a 1:1 acetonitrile/water solution (v/v). The solution was frozen on the shelf of the freeze dryer for a minimum of 3 hours and then lyophilized. The resulting solid was determined to be amorphous by differential scanning calorimetry and polarized light microscopy. Suspensions were prepared by the addition of 0.5% HPMC with 1% Tween-80, followed by stirring and homogenization for 2 minutes.

With `COc1ccc([C@H]2c3[nH]c4ccc(Cl)cc4c3CCN2C(=O)Oc2ccc(Cl)cc2)cc1` (racemic) [#10] the “percentage of spheroid cells that incorporated BrdU (cells in S-phase)” value ([1]; 24 or 48 hours, 10 nM or 50 nM) was “not significantly altered”, the “gross morphology of spheroids” value ([1]; day 5 of treatment, 10 nM or 50 nM) was “indistinguishable from one another” and the “morphology of spheroids” value ([1]; maintained in presence of compound for three weeks) was “no obvious morphological changes”. For the same compound, the “cell cycle distribution of HT1080 spheroids” value ([1]; treated for 24 hours) was “not affected”, the “cell cycle distribution of HT1080 spheroids” value ([1]; treated for 48 hours) was “not affected” and the CC50 [2] was 0.7 µM and 0.083 µM. For the same compound, the IC50 [3] was > 1000 nM, the IC90 [3] was > 1000 nM and the CC50 [4] was 4.1 nM. The IC50 [5] was > 1000 nM, the IC90 [5] was > 1000 nM and the “genotoxicity finding” value [6] was “no evidence of genotoxic effects”. The IC50 [7] was 250 nM, the IC90 [7] was ≥ 160 nM and the “clinical safety” value [8] was “acceptable safety”. For the same compound, the CC50 [9] was > 1000 nM, the “tolerability in toxicology study” value [10] was “good tolerability” and the IC50 [11] was > 1000 nM. The IC90 [11] was > 1000 nM, the CC50 [12] was > 1000 nM and the CC50 [13] was > 1000 nM. The IC50 [14] was 22 nM, the CC50 [15] was 680 nM and the IC50 [16] was 29 nM. The IC90 [16] was 44 nM, the IC50 [17] was > 1000 nM and the “BrdU incorporated by individual cells during one-hour pulse versus DMSO control” value [18] was “less BrdU”. The “percentage of cells residing in S-phase” value ([18]; increasing doses (1-100 nM)) was “net increase”, the “concentration from which an accumulation of cells in S phase is observed” value ([19]; HT1080, 18 hours) was ≥ 1 nM and the “effect on cell cycle distribution” value ([19]; HT1080, 18 hours) was “induced a redistribution of the cycling characteristics of the cell population”. The “clinical tolerability” value [20] was “generally well tolerated”, the CC50 [21] was > 1000 nM and the “safety pharmacology finding” value [22] was “no adverse off-target effects”. The “tolerability in toxicology study” value [23] was “good tolerability”, the IC50 [24] was > 1000 nM and the IC90 [24] was > 1000 nM. For the same compound, the “antiviral activity in HCV replicon systems” value [25] was “potent in vitro inhibitory activity” and the CC50 [26] was > 1000 nM.

In the case of `O=C(Oc1ccc(Cl)cc1)N1CCc2c([nH]c3ccc(Cl)cc23)[C@@H]1c1ccc(OCC[C@H](O)CO)cc1` [Compound 1205], the “bioavailability in vivo” value [27] is reported as “bioavailable” and the “effect on cell cycle distribution” value ([19]; HT1080, 18 hours) is reported as “induced a redistribution of the cycling characteristics of the cell population”.

For `O=C(Oc1ccc(Cl)cc1)N1CCc2c([nH]c3ccc(Cl)cc23)C1c1ccc(OCCN2CCOCC2)cc1` (stereo not drawn) [Compound 331], the “% Cells In S-Phase” value [19] was 16.4%.

With `O=C(Oc1ccc(Cl)cc1)N1CCc2c([nH]c3ccc(Cl)cc23)C1c1ccc(OCCN2CCCCC2)cc1` (stereo not drawn) [Compound 1736] the “% Cells In S-Phase” value [19] was 16.8%.
